Assay results as given in publication PMC9146215, “Design of D-Amino Acids SARS-CoV-2 Main Protease Inhibitors Using the Cationic Peptide from Rattlesnake Venom as a Scaffold” (Pharmaceuticals, 2022).
Positions of bridges follow the written chain, without caps; N, C: chain ends. Non-standard residues stand in square brackets, D forms with d. Residues, ends and D or L forms follow the SMILES beside them. No end group written: not given here.

How the values were obtained:
SARS-CoV-2 3CL^pro [1] = molecular target: T1, SARS-CoV-2 3CL^pro (Severe acute respiratory syndrome coronavirus 2, UniProt P0DTD1); assay: Determination of inhibition mode (Lineweaver-Burk plot); assay type: biochemical; conditions: 0.5 µM 3CLpro, 30 min incubation at RT, triplicate
T1 construct: SARS-CoV-2 3CL^pro (Uniprot entry: P0DTD1, virus strain: hCoV-19/Wuhan/WIV04/2019) was cloned, expressed, and purified; GST (cleaved yes); made in house; host or cells: E. coli Lemo21 (DE3)
Protocol: The inhibition mode was determined using different final concentrations of the inhibitors and substrate. […] The remaining L-peptides were not tested.
Briefly, 0.5 µM SARS-CoV-2 3CL^pro was incubated with the inhibitor, in various concentrations, for 30 min at RT. Subsequently, the reaction was initiated by adding the corresponding concentration series of the substrate. The data were analysed using a Lineweaver-Burk plot; therefore, the reciprocal of velocity (1/V) vs the reciprocal of the substrate concentration (1/[S]) was compared. All measurements were performed in triplicate, and data are presented as mean ± SD.

[2] = tested on: SARS-CoV-2 B1.1 isolate (NRW-42) in Vero cells; assay type: cell-based
SARS-CoV-2 3CL^pro [3] = molecular target: T1, SARS-CoV-2 3CL^pro; assay: Inhibitor stability over 24 h (24 h inhibition experiment); assay type: biochemical; conditions: 0.5 µM 3CLpro with 5 µM peptide, 1/2 h to 24 h at RT, triplicate
Protocol: Briefly, 0.5 µM SARS-CoV-2 3CL^pro was incubated with 5 µM of the peptide and incubated for 1/2 h, 1 h, 2 h, 3 h, 4 h, 5 h, and 24 h at RT. The control was performed with the 3CL^pro in the absence of the peptide and measured together after each time point. Subsequently, the reaction was initiated by the addition of the substrate. All measurements were performed in triplicate, and data are presented as mean ± SD.

pepsin = pepsin (Sus scrofa, UniProt P00791); assay: L- and D-peptide stability against pepsin hydrolysis (simulated gastric fluid); assay type: in vitro ADME; conditions: simulated gastric fluid: 3.2 mg/mL pepsin, pH 1.0, 37 °C, 4 and 8 h; RP-HPLC
Chain of pepsin (P00791 60-385): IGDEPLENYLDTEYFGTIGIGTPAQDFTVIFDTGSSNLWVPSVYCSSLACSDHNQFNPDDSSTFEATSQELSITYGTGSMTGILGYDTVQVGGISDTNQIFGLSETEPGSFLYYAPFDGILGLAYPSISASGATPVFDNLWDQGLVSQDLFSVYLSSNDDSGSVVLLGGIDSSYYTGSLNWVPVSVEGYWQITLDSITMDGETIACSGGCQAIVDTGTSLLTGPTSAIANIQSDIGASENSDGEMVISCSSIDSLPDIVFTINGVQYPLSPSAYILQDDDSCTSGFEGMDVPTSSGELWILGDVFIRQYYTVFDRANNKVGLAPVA
Protocol: (§1) As protein hydrolysis is initiated by pepsin, we have performed a hydrolysis experiment simulating gastric fluid for both selected L- and D-peptides. After incubation over 4 and 8 h, the sample was analysed using RP-HPLC (Supplementary Figure S8).
(§2) The preparation of the pepsin solution was performed as described before. The experiment solution contains 2 mg/mL NaCl, 3.2 mg/mL pepsin, and 80 mM HCL at a pH 1.0. This solution simulated gastric fluid. […] Samples were taken after 0 h, 4 h, and 8 h. The samples were analysed by reversed-phase high-performance liquid chromatography (RP-HPLC). The RP-HPLC system (Agilent Technologies, Santa Clara, CA, USA; 1200 series) consisted of a manual injector, quaternary pump, a thermostatted column compartment, and a variable wavelength detector. Chromatography was performed with a C18 column (Agilent Technologies, Santa Clara, CA, USA; ZORBAX 300SB-C18 5 µm, 4.6 × 250 mm) at 25 °C and 214 nm with a flow rate of 1 mL/min. The sample injection volume was 20 µL. Chromatograms were recorded and analysed with the Agilent software ChemStation (G2175BA; B03.01). Mobile phases were acetonitrile (A) and water (B), each supplemented with 0.15% trifluoroacetic acid (TFA) (v/v). The samples were measured isocratically at 10% solvent A for 30 min.

SARS-CoV-2 3CL^pro [4] = molecular target: T1, SARS-CoV-2 3CL^pro; assay: Detergent-based (Triton X-100) control assay for aggregation-based promiscuous inhibition; assay type: biochemical; conditions: 0.001%, 0.01%, 0.1% Triton X-100; four peptide concentrations; triplicate
Protocol: A detergent-based control assay was performed to exclude inhibitors that possibly act as aggregators of the 3CL^pro by adding 0.001%, 0.01%, and 0.1% of Triton X-100 to the reaction. […] All measurements were performed in triplicate, and data are presented as mean ± SD.

Vero CCL-81 cells = assay: MTT cell viability assay; assay type: cell-based, African green monkey; conditions: n = 3
Protocol: Therefore, Vero cells were cultivated in DMEM medium supplemented with 2% fetal calf serum (FCS) and 1% penicillin/streptomycin. A total of 2000 cells per well in a volume of 100 µL were seeded on flat-bottomed 96-well plates (VWR, Radnor, USA) and incubated in a 95% humidified atmosphere with 5% CO2 at 37 °C for 24 h. Subsequently, the cells were treated with 0.2, 1, 5, 10, 25, 50, and 98 µM of each molecule at 37 °C with 5% CO2 for 24 h.
According to the manufacturer’s instructions, cell viability was measured using the Cell Proliferation Kit I (Roche, Basel, Switzerland) in a 3-fold determination. The absorbance of the formazan product was determined by measuring the absorption at 570 nm and subtracted by the absorbance at 690 nm in a microplate reader (BMG Labtech, Ortenberg, Germany). The results were normalised to the mean value of cells treated with medium only. As a […] control for cytotoxicity, 0.1% Triton X-100 diluted in the medium was used. Cell viability was calculated according to Equation (2):(T/C) × 100%(2) where T and C represented the optical density of the treated well and control groups, respectively.

[5] = L- and D-peptide stability against pepsin hydrolysis (simulated gastric fluid); assay type: in vitro ADME; conditions: simulated gastric fluid with pepsin (3.2 mg/mL); simulated gastric fluid: 2 mg/mL NaCl, 3.2 mg/mL pepsin, 80 mM HCl, pH 1.0; 37 °C, 500 rpm; after 8 h; RP-HPLC C18, 214 nm; read-out: Peptide amount remaining after pepsin incubation
Protocol: as §1, §2

SARS-CoV-2 3CL^pro [6] = molecular target: T1, SARS-CoV-2 3CL^pro; assay: SARS-CoV-2 3CLpro fluorogenic (DABCYL/EDANS substrate) inhibition assay; assay type: biochemical; conditions: 0.5 µM 3CLpro, n = 3; for IC50: 30 min pre-incubation with inhibitor at RT, 50 µM substrate, 37 °C, pH 7.2, 1 mM TCEP, mean ± SD, read-out: IC50 [µM] ± STD
Protocol: The SARS-CoV-2 3CL^pro activity assay was performed using DABCYL-KTSAVLQ/SGFRKME-EDANS (Bachem, Switzerland) as substrate.
SARS-CoV-2 3CL^pro activity assay was performed using a fluorogenic substrate DABCYL-KTSAVLQ↓SGFRKME-EDANS (Bachem, Bubendorf, Switzerland) in a buffer containing 20 mM Tris pH 7.2, 200 mM NaCl, 1 mM EDTA, and 1 mM TCEP [31, 32, 33, 34]. The reaction mixture was pipetted in a Corning 96-well plate (Merck, Darmstadt, Germany) containing 0.5 µM protein. The assay was initiated with the addition of the substrate at a final concentration of 50 µM. The fluorescence intensities were measured at 60 s intervals over 30 min using an Infinite 200 PRO plate reader (Tecan, Männedorf, Switzerland), and the temperature was set to 37 °C. The excitation and emission wavelengths were 360 and 460 nm, respectively.
The activity assay described above investigated the inhibition of SARS-CoV-2 3CL^pro activity by Cro, L- and D-CDPs. 30 µM of the peptides was used for a preliminary screening test.
For the final inhibition assays, 0.5 µM of the protein was mixed with 0–300 µM Cro, 0–150 µM L-CDPs, and 0–125 µM D-CDPs and subsequently incubated for 30 min at RT. An additional experiment was conducted where the substrate and the inhibitor were added simultaneously (without incubation). When the substrate with a final concentration of 50 µM was added to the mixture, the fluorescence intensities were measured at 60 s intervals over 30 min using an Infinite 200 PRO plate reader (Tecan, Männedorf, Switzerland). The temperature was set to 37 °C, and the excitation and emission wavelengths were 360 and 460 nm, respectively. Inhibition assays were performed in triplicate.
The IC50 value was calculated by plotting the initial velocity against various concentrations of the combined molecules using a dose-response curve in GraphPad Prism5 software […]. Data are presented as mean ± SD.

[7] = tested on: all cell types investigated; conditions: rapid translocation efficiency; cited from earlier work
From the text: These properties were mainly determined by the overall positive net surface charge distribution of crotamine. Characterised as a novel cell-penetrating polypeptide (CPP) nanocarrier, Cro has biotechnological ...

Row | Compound | Inhibition Type (SARS-CoV-2 3CL^pro [1]) | Viral RNA in cell culture supernatant [2] | Inhibition of SARS-CoV-2 3CLpro over 24 h (stability of inhibitor) (SARS-CoV-2 3CL^pro [3]) | Stability against pepsin hydrolysis (in words) (pepsin) | Aggregation-based inhibition (inhibition diminished by detergent) (SARS-CoV-2 3CL^pro [4]) | Cytotoxic effect at the calculated IC50 concentrations (Vero CCL-81 cells) | remaining at 8 h [5] [%] | Concentration giving 100% protease inhibition (SARS-CoV-2 3CL^pro [6]; dose-dependent study) [µM] | IC50 (SARS-CoV-2 3CL^pro [6]) [µM] | Time for translocation into cells [7] [min]
1 | COC(=O)[C@@H](CCCCN)NC(=O)[C@@H](CCCCN)NC(=O)[C@@H](CS)NC(=O)[C@@H](CS)NC(=O)[C@@H](CCCCN)NC(=O)[C@@H](Cc1c[nH]c2ccccc12)NC(=O)[C@@H](CCCNC(=N)N)NC(=O)[C@@H](Cc1c[nH]c2ccccc12)NC(=O)[C@@H](CCCNC(=N)N)NC(=O)[C@@H](CS)NC(=O)[C@@H](CC(=O)O)NC(=O)[C@@H](CCSC)NC(=O)[C@@H](CCCCN)NC(C)=O [D-CDP1] (Ac-[dK][dM][dD][dC][dR][dW][dR][dW][dK][dC][dC][dK][dK]-OMe) | Competitive | significant decrease in viral RNA | constant inhibition | stable against pepsin hydrolysis | not observed | no cytotoxic effect | – | – | – | –
2 | COC(=O)[C@H](CCCCN)NC(=O)[C@H](CCCCN)NC(=O)[C@H](CS)NC(=O)[C@H](CS)NC(=O)[C@H](CCCCN)NC(=O)[C@H](Cc1c[nH]c2ccccc12)NC(=O)[C@H](CCCNC(=N)N)NC(=O)[C@H](Cc1c[nH]c2ccccc12)NC(=O)[C@H](CCCNC(=N)N)NC(=O)[C@H](CS)NC(=O)[C@H](CC(=O)O)NC(=O)[C@H](CCSC)NC(=O)[C@H](CCCCN)NC(C)=O [L-CDP1] (Ac-KMDCRWRWKCCKK-OMe) | Competitive | – | constant inhibition | – | not observed | – | ~50 | 30 | – | –
3 | COC(=O)[C@H](CCCCN)NC(=O)[C@H](CCCCN)NC(=O)[C@H](CO)NC(=O)[C@H](CO)NC(=O)[C@H](CCCCN)NC(=O)[C@H](Cc1c[nH]c2ccccc12)NC(=O)[C@H](CCCNC(=N)N)NC(=O)[C@H](Cc1c[nH]c2ccccc12)NC(=O)[C@H](CCCNC(=N)N)NC(=O)[C@H](CS)NC(=O)[C@H](CC(=O)O)NC(=O)[C@H](CCSC)NC(=O)[C@H](CCCCN)NC(C)=O [L-CDP3] (Ac-KMDCRWRWKSSKK-OMe) | – | – | – | – | – | – | – | – | 8.5 ± 1 | –
4 | YKQCHKKGGHCFPKEKICLPPSSDFGKMDCRWRWKCCKKGSG (disulfide 4-36, 11-30, 18-37) [Crotamine] | – | – | – | – | – | – | – | – | 40 ± 3.1 | ≤ 5
